Experimental data as given in patent publication US20170334899A1, “AMINO-SUBSTITUTED ISOTHIAZOLES” (Bayer Pharma Aktiengesellschaft, priority 2014, published 2017).

Key:
CDK2/CycE = target: T1, CDK2/CycE (Homo sapiens, UniProt P24941); assay: CDK2/CycE kinase assay (TR-FRET); type: biochemical; conditions: avg, read-out: CDK2 avg (IC50 [mol/l])
T1 construct: GST; purchased ProQinase GmbH (Freiburg, Germany); host or cells: insect cells (Sf9)
Summary of the method: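 GST-tagged human CDK2 and CycE from Sf9 cells, preincubated 15 min with compound, then 25 min at 22° C. with 10 μM ATP and 0.75 μM biotinylated Rb-derived peptide (final). Phospho-substrate read by TR-FRET (anti-pRB pSer807/pSer811, Eu anti-mouse IgG, streptavidin-XL665), 665/620 nm ratio, normalised to no-inhibitor and no-enzyme controls.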

[1] = target: T2, catalytic domain of human Bub1 (amino acids 704-1085) (Homo sapiens, UniProt O43683); assay: Bub1 kinase assay (TR-FRET); type: biochemical; conditions: 10 μM ATP, avg, read-out: Bub1 avg (IC50 [mol/l])
T2 construct: catalytic domain of human Bub1 (amino acids 704-1085); His6 (N); made in house; host or cells: insect cells (Hi5)
T2 sequence (O43683 704-1085): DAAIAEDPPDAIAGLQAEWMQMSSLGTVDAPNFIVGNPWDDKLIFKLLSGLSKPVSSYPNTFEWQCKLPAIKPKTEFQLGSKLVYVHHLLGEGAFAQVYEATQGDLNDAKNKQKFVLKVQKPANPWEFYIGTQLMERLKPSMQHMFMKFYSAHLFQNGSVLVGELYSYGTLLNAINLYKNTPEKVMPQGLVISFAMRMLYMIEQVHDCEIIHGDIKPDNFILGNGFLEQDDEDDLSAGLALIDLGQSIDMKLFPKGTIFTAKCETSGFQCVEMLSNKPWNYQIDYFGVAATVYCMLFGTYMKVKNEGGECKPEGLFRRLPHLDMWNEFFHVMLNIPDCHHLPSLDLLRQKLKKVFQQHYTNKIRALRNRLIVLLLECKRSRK
Summary of the method: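 Readout is the 665/620 nm TR-FRET ratio from anti-phosphoserine antibody, Eu-labelled anti-mouse IgG and streptavidin-XL665, scaled between no-enzyme and uninhibited controls. Reaction: 1 μM biotinylated peptide, 10 μM ATP, 60 min, 22 °C, after 15 min compound preincubation with His6-Bub1 (704-1085, insect-expressed, ~200 ng/ml).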

In the case of `Cc1nsc(Nc2ccc(C#N)cn2)c1C(=O)Nc1ccc(OC2CCNCC2)nc1` [Example 28, 5-[(5-Cyanopyridin-2-yl)amino]-3-methyl-N-[6-(piperidin-4-yloxy)pyridin-3-yl]-1,2-thiazole-4-carboxannide], the IC50 (CDK2/CycE) is reported as ≥ 20 µM and the IC50 [1] is reported as ≥ 20 µM.
In the case of `Cc1nsc(Nc2ccc(C#N)cn2)c1C(=O)Nc1ccc(OC2CCN(CCF)CC2)nc1` [Example 29, 5-[(5-Cyanopyridin-2-yl)amino]-N-(6-{[1-(2-fluoroethyl)piperidin-4-yl]oxy}pyridin-3-yl)-3-methyl-1,2-thiazole-4-carboxamide], the IC50 (CDK2/CycE) is reported as ≥ 20 µM and the IC50 [1] is reported as ≥ 20 µM.
In the case of `Cc1nsc(Nc2ccc(C#N)cn2)c1C(=O)Nc1ccc(OC2CCN(CC(F)(F)F)CC2)nc1` [Example 30, 5-[(5-Cyanopyridin-2-yl)amino]-3-methyl-N-(6-{[1-(2,2,2-trifluoroethyl)piperidin-4-yl]oxy}pyridin-3-yl)-1,2-thiazole-4-carboxamide], the IC50 (CDK2/CycE) is reported as ≥ 20 µM and the IC50 [1] is reported as ≥ 20 µM.
`Cc1nsc(Nc2cnc3ccccc3n2)c1C(=O)Nc1ccc(OC2CCCN(C(=O)OC(C)(C)C)C2)nc1` (centres unmarked) [Example 31, tert-Butyl 3-{[5-({[3-methyl-5-(quinoxalin-2-ylamino)-1,2-thiazol-4-yl]carbonyl}-amino)pyridin-2-yl]oxy}piperidine-1-carboxylate] was tested, and the IC50 (CDK2/CycE) was ≥ 20 µM and the IC50 [1] was ≥ 20 µM.
With `Cc1nsc(Nc2cnc3ccccc3n2)c1C(=O)Nc1ccc(OC2CCCNC2)nc1` (centres unmarked) [Example 32, 3-Methyl-N-[6-(piperidin-3-yloxy)pyridin-3-yl]-5-(quinoxalin-2-ylamino)-1,2-thiazole-4-carboxannide] the IC50 (CDK2/CycE) was ≥ 20 µM and the IC50 [1] was ≥ 20 µM.
In the case of `Cc1nsc(Nc2cnc3ccccc3n2)c1C(=O)Nc1ccc(OC2CCCN(CC(F)F)C2)nc1` (centres unmarked) [Example 33, N-(6-{[1-(2,2-Difluoroethyl)piperidin-3-yl]oxy}pyridin-3-yl)-3-methyl-5-(quinoxalin-2-ylamino)-1,2-thiazole-4-carboxamide], the IC50 (CDK2/CycE) is reported as ≥ 20 µM and the IC50 [1] is reported as ≥ 20 µM.
In the case of `Cc1nsc(Nc2cc(C#N)ccn2)c1C(=O)Nc1ccc(OC2CCCN(C(=O)OC(C)(C)C)C2)nc1` (centres unmarked) [Example 34, tert-Butyl 3({5-[({5-[(4-cyanopyridin-2-yl)amino]-3-methyl-1,2-thiazol-4-yl}-carbonyl)amino]pyridin-2-yl}oxy)piperidine-1-carboxylate], the IC50 (CDK2/CycE) is reported as ≥ 20 µM and the IC50 [1] is reported as ≥ 20 µM.
For `Cc1nsc(Nc2cnc(C(F)(F)F)cn2)c1C(=O)Nc1ccc(OCCNCCC(F)(F)F)nc1` [Example 323, 3-methyl-5-{[5-(trifluoromethyl)pyrazin-2-yl]amino}-N-(6-{2-[(3,3,3-trifluoropropyl)amino]ethoxy}pyridin-3-yl)-1,2-thiazole-4-carboxamide], the IC50 (CDK2/CycE) was ≥ 20 µM and the IC50 [1] was 18 µM.
`Cc1nsc(Nc2cnc(C(F)(F)F)cn2)c1C(=O)Nc1ccc(OC2CCN(C(CF)CF)CC2)nc1` [Example 324, N-(6-{[1-(1,3-difluoropropan-2-yl)piperidin-4-yl]oxy}pyridin-3-yl)-3-methyl-5-{[5-(trifluoromethyl)pyrazin-2-yl]amino}-1,2-thiazole-4-carboxamide] was tested, and the IC50 (CDK2/CycE) was ≥ 20 µM and the IC50 [1] was 19 µM.
For `Cc1nsc(Nc2cnc(C(F)(F)F)cn2)c1C(=O)Nc1ccc(OCC2CCCN(CCF)C2)nc1` (centres unmarked) [Example 325, N-(6-{[1-(2-fluoroethyl)piperidin-3-yl]methoxy}pyridin-3-yl)-3-methyl-5-{[5-(trifluoromethyl)pyrazin-2-yl]amino}-1,2-thiazole-4-carboxamide], the IC50 (CDK2/CycE) was ≥ 20 µM and the IC50 [1] was ≥ 20 µM.
In the case of `Cc1nsc(Nc2cnc(C(F)(F)F)cn2)c1C(=O)Nc1ccc(OCC2CCCN(CC(F)(F)F)C2)nc1` (centres unmarked) [Example 326, 3-methyl-N-(6-{[1-(2,2,2-trifluoroethyl)piperidin-3-yl]methoxy}pyridin-3-yl)-5-{[5-(trifluoromethyl)pyrazin-2-yl]amino}-1,2-thiazole-4-carboxamide], the IC50 (CDK2/CycE) is reported as ≥ 20 µM and the IC50 [1] is reported as ≥ 20 µM.
For `Cc1nsc(Nc2cnc(C(F)(F)F)cn2)c1C(=O)Nc1ccc(OCC2CCCN(CC(F)F)C2)nc1` (centres unmarked) [Example 327, N-(6-{[1-(2,2-difluoroethyl)piperidin-3-yl]methoxy}pyridin-3-yl)-3-methyl-5-{[5-(trifluoromethyl)pyrazin-2-yl]amino}-1,2-thiazole-4-carboxamide], the IC50 (CDK2/CycE) was ≥ 20 µM and the IC50 [1] was ≥ 20 µM.
In the case of `Cc1nsc(Nc2cnc(C(F)(F)F)cn2)c1C(=O)Nc1ccc(OCC2CCCN(CCC(F)(F)F)C2)nc1` (centres unmarked) [Example 328, 3-methyl-5-{[5-(trifluoromethyl)pyrazin-2-yl]amino}-N-(6-{[1-(3,3,3-trifluoropropyl)piperidin-3-yl]methoxy}pyridin-3-yl)-1,2-thiazole-4-carboxamide], the IC50 (CDK2/CycE) is reported as ≥ 20 µM and the IC50 [1] is reported as ≥ 20 µM.
For `Cc1nsc(Nc2cnc(C(F)(F)F)cn2)c1C(=O)Nc1ccc(OC2CCCN(CCF)C2)nc1` (centres unmarked) [Example 329, N-(6-{[1-(2-fluoroethyl)piperidin-3-yl]oxy}pyridin-3-yl)-3-methyl-5-{[5-(trifluoromethyl)pyrazin-2-yl]amino}-1,2-thiazole-4-carboxamide], the IC50 (CDK2/CycE) was ≥ 20 µM and the IC50 [1] was ≥ 20 µM.
With `Cc1nsc(Nc2cnc(C(F)(F)F)cn2)c1C(=O)Nc1ccc(OC2CCCN(CC(F)F)C2)nc1` (centres unmarked) [Example 330, N-(6-{[1-(2,2-difluoroethyl)piperidin-3-yl]oxy}pyridin-3-yl)-3-methyl-5-{[5-(trifluoromethyl)pyrazin-2-yl]amino}-1,2-thiazole-4-carboxamide] the IC50 (CDK2/CycE) was ≥ 20 µM and the IC50 [1] was ≥ 20 µM.
`Cc1nsc(Nc2cnc(C(F)(F)F)cn2)c1C(=O)Nc1ccc(OCCN(C)CCF)nc1` [Example 348, N-(6-{2-[(2-fluoroethyl)(methyl)amino]ethoxy}pyridin-3-yl)-3-methyl-5-{[5-(trifluoromethyl)pyrazin-2-yl]amino}-1,2-thiazole-4-carboxamide] was tested, and the IC50 (CDK2/CycE) was ≥ 20 µM.
With `Cc1nsc(Nc2cnc(C(F)(F)F)cn2)c1C(=O)Nc1ccc(OCCN(C)CC(F)F)nc1` [Example 349, N-(6-{2-[(2,2-difluoroethyl)(methyl)amino]ethoxy}pyridin-3-yl)-3-methyl-5-{[5-(trifluoromethyl)pyrazin-2-yl]amino}-1,2-thiazole-4-carboxamide] the IC50 (CDK2/CycE) was ≥ 20 µM.
With `Cc1nsc(Nc2cnc(C(F)(F)F)cn2)c1C(=O)Nc1ccc(OCCN(C)CC(F)(F)F)nc1` [Example 350, 3-methyl-N-(6-{2-[methyl(2,2,2-trifluoroethyl)amino]ethoxy}pyridin-3-yl)-5-{[5-(trifluoromethyl)pyrazin-2-yl]amino}-1,2-thiazole-4-carboxamide] the IC50 (CDK2/CycE) was ≥ 20 µM.
With `Cc1nsc(Nc2cnc(C(F)(F)F)cn2)c1C(=O)Nc1ccc(OCCCN(C)CC(F)F)nc1` [Example 353, N-(6-{3-[(2,2-difluoroethyl)(methyl)amino]propoxy}pyridin-3-yl)-3-methyl-5-{[5-(trifluoromethyl)pyrazin-2-yl]amino}-1,2-thiazole-4-carboxamide] the IC50 (CDK2/CycE) was ≥ 20 µM.
For `Cc1nsc(Nc2cnc(C(F)(F)F)cn2)c1C(=O)Nc1ccc(OCCCN(C)CC(F)(F)F)nc1` [Example 354, 3-methyl-N-(6-{3-[methyl(2,2,2-trifluoroethyl)amino]propoxy}pyridin-3-yl)-5-{[5-(trifluoromethyl)pyrazin-2-yl]amino}-1,2-thiazole-4-carboxamide], the IC50 (CDK2/CycE) was ≥ 20 µM.
In the case of `Cc1nsc(Nc2cnc(C(F)(F)F)cn2)c1C(=O)Nc1ccc(OCCCN(C)CCC(F)(F)F)nc1` [Example 355, 3-methyl-N-(6-{3-[methyl(3,3,3-trifluoropropyl)amino]propoxy}pyridin-3-yl)-5-{[5-(trifluoromethyl)pyrazin-2-yl]amino}-1,2-thiazole-4-carboxamide], the IC50 (CDK2/CycE) is reported as ≥ 20 µM.
`Cc1nsc(Nc2cnc(C(F)(F)F)cn2)c1C(=O)Nc1ccc(O[C@@H]2CCN(CC(F)F)C[C@H]2F)nc1` [Example 366, N-(6-{[(3R,4R)-1-(2,2-difluoroethyl)-3-fluoropiperidin-4-yl]oxy}pyridin-3-yl)-3-methyl-5-{[5-(trifluoromethyl)pyrazin-2-yl]amino}-1,2-thiazole-4-carboxamide] was tested, and the IC50 (CDK2/CycE) was > 20 µM.
For `Cc1nsc(Nc2cnc(C(F)(F)F)cn2)c1C(=O)Nc1ccc(O[C@@H]2CCCN(CC(F)F)C2)nc1` [Example 385, N-(6-{[(3R)-1-(2,2-difluoroethyl)piperidin-3-yl]oxy}pyridin-3-yl)-3-methyl-5-{[5-(trifluoromethyl)pyrazin-2-yl]amino}-1,2-thiazole-4-carboxamide], the IC50 (CDK2/CycE) was > 20 µM.
`Cc1nsc(Nc2cnc(C(F)(F)F)cn2)c1C(=O)Nc1ccc(O[C@H]2CCCN(CC(F)F)C2)nc1` [Example 388, N-(6-{[(3S)-1-(2,2-difluoroethyl)piperidin-3-yl]oxy}pyridin-3-yl)-3-methyl-5-{[5-(trifluoromethyl)pyrazin-2-yl]amino}-1,2-thiazole-4-carboxamide] was tested, and the IC50 (CDK2/CycE) was > 20 µM.
With `Cc1nsc(Nc2cnc(C(F)(F)F)cn2)c1C(=O)Nc1ccc(O[C@H]2CCCN(CC(F)(F)F)C2)nc1` [Example 389, 3-methyl-N-(6-{[(3S)-1-(2,2,2-trifluoroethyl)piperidin-3-yl]oxy}pyridin-3-yl)-5-{[5-(trifluoromethyl)pyrazin-2-yl]amino}-1,2-thiazole-4-carboxamide] the IC50 (CDK2/CycE) was > 20 µM.
In the case of `Cc1nsc(Nc2cnc(C(F)(F)F)cn2)c1C(=O)Nc1ccc(O[C@H]2CCCN(CCC(F)(F)F)C2)nc1` [Example 390, 3-methyl-5-{[5-(trifluoromethyl)pyrazin-2-yl]amino}-N-(6-{[(3S)-1-(3,3,3-trifluoropropyl)piperidin-3-yl]oxy}pyridin-3-yl)-1,2-thiazole-4-carboxamide], the IC50 (CDK2/CycE) is reported as > 20 µM.
